Measured values: patent publication US20260055102A1 (Redx Pharma Limited, priority 2022, published 2026)

Assays:
[1] = molecular target: Recombinant human DDR1 (aa440-876 containing a GST tag) (Homo sapiens (Human), UniProt Q08345); experiment: LanthaScreen Eu Kinase Binding Assay DDR1; conditions: Kinase Tracer 178 5 nM, at least two independent replicates; for IC50: read-out: DDR1 pIC50 (converted)
Method: (§1) DDR1 and DDR2 Biochemical Assay Method The capacity of compounds to bind to DDR1 and DDR2 was quantified using a LanthaScreen Eu Kinase Binding Assay. Recombinant human DDR1 (2.5 nM; aa440-876 containing a GST tag) and DDR2 (1.75 nM; aa427-855 containing a GST tag) were diluted in assay buffer (50 mM HEPES pH7.3, 10 mM MgCl2, 1 mM EGTA and 0.01% Tween) with various concentrations of compound in a 384-well plate and a volume of 5 uL. After a 30-minute incubation at room temperature, 2.5 uL of Eu-anti GST antibody (diluted to 1 nM in assay buffer) plus Kinase Tracer 178 (diluted in assay buffer to 5 nM for DDR1 and 10 nM for DDR2) were added to the plate. Following 60-minute incubation at room temperature, time-resolved fluorescence was measured on a BMG Labtech PHERAstar plate reader. DMSO (1%) and reference compound (1 μM) were used to generate the Max and Min assay signals, respectively. Data was analysed using a four-parameter logistic model to calculate IC50 values, with at least two independent replicates were performed for each compound.

[2] = molecular target: Recombinant human DDR2 (aa427-855 containing a GST tag) (Homo sapiens (Human), UniProt Q16832); experiment: LanthaScreen Eu Kinase Binding Assay DDR2; conditions: Kinase Tracer 178 10 nM, at least two independent replicates; for IC50: read-out: DDR2 pIC50 (converted)
Method: as §1

Sequence of Recombinant human DDR1 (aa440-876 containing a GST tag) (Q08345 other isoform, or with tags, fused parts or gaps): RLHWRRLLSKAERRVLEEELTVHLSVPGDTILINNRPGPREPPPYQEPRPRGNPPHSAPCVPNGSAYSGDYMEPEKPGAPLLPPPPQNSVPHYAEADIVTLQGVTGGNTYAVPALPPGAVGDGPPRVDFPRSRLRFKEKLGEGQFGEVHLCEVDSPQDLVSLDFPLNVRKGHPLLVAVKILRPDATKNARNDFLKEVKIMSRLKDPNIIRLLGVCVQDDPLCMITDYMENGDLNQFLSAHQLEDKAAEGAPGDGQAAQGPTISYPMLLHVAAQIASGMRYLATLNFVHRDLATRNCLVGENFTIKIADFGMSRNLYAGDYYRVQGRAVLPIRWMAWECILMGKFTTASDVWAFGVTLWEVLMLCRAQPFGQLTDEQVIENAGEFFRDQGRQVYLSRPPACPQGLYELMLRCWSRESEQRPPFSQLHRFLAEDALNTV
Sequence of Recombinant human DDR2 (aa427-855 containing a GST tag) (Q16832 427-855): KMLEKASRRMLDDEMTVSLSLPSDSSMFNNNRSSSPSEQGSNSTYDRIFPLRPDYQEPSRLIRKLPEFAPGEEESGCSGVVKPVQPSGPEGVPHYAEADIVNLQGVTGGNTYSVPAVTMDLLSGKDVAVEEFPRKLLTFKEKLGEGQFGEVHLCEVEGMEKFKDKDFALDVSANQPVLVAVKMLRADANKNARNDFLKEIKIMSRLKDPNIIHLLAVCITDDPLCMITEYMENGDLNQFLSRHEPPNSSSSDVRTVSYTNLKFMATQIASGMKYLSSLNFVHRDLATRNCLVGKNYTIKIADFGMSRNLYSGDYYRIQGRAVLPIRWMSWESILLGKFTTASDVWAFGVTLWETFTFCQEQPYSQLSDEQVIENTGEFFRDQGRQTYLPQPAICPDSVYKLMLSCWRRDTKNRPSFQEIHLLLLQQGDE

Compound	DDR1 pIC50 [1]	DDR2 pIC50 [2]	IC50 [2] [nM]	IC50 [1] [nM]
Cn1ncc2c(-c3ccc(-n4c(=O)n(CC(=O)N5CCCC[C@@H]5C(F)(F)F)c5ccccc54)cc3)cncc21 [Example 30, 1-[4-(1-methylpyrazolo[3,4-c]pyridin-4-yl)phenyl]-3-[2-oxo-2-[(2R)-2-(trifluoromethyl)-1-piperidyl]ethyl]benzimidazol-2-one]	–	D (pIC50≤6)	–	100 to 1000
Cn1ncc2c(-c3ccc(-n4c(=O)n(CC(=O)N5CCCC[C@H]5C(F)(F)F)c5ccccc54)cc3)cncc21 [Example 32, 1-[4-(1-methylpyrazolo[3,4-c]pyridin-4-yl)phenyl]-3-[2-oxo-2-[(2S)-2-(trifluoromethyl)-1-piperidyl]ethyl]benzimidazol-2-one]	A (pIC50>8)	–	100 to 1000	–
Cn1ncc2c(-c3ccc(-n4c(=O)n(CC(=O)N5CC(C(F)(F)F)C5)c5ccccc54)cc3)cncc21 [Example 34, 1-[4-(1-methylpyrazolo[3,4-c]pyridin-4-yl)phenyl]-3-[2-oxo-2-[3-(trifluoromethyl)azetidin-1-yl]ethyl]benzimidazol-2-one]	–	D (pIC50≤6)	–	100 to 1000
Cn1ncc2c(-c3ccc(-n4c(=O)n(CC(=O)NC5CC5(F)F)c5ccccc54)cc3)cncc21 (centres unmarked) [Example 36, N-(2,2-difluorocyclopropyl)-2-[3-[4-(1-methylpyrazolo[3,4-c]pyridin-4-yl)phenyl]-2-oxobenzimidazol-1-yl]acetamide]	–	D (pIC50≤6)	–	100 to 1000
Cn1ncc2c(-c3ccc(-n4c(=O)n(CC(=O)N5CCO[C@@H](C(F)(F)F)C5)c5ccccc54)cc3)cncc21 [Example 37, 1-[4-(1-methylpyrazolo[3,4-c]pyridin-4-yl)phenyl]-3-[2-oxo-2-[(2R)-2-(trifluoromethyl)morpholin-4-yl]ethyl]benzimidazol-2-one]	–	D (pIC50≤6)	–	10 to 100
Cc1cccc2c1n(-c1ccc(-c3cncc4c3cnn4C)cc1)c(=O)n2CC(=O)N1CCOCC1C(F)(F)F (centres unmarked) [Example 39, 4-methyl-3-[4-(1-methylpyrazolo[3,4-c]pyridin-4-yl)phenyl]-1-[2-oxo-2-[3-(trifluoromethyl)morpholin-4-yl]ethyl]benzimidazol-2-one]	A (pIC50>8)	–	10 to 100	–
Cc1cc(-c2cncc3c2cnn3C)ccc1-n1c(=O)n(CC(=O)N2CCOC(C(F)(F)F)C2)c2ccccc21 (centres unmarked) [Example 40, 1-[2-methyl-4-(1-methylpyrazolo[3,4-c]pyridin-4-yl)phenyl]-3-[2-oxo-2-[2-(trifluoromethyl)morpholin-4-yl]ethyl]benzimidazol-2-one]	–	D (pIC50≤6)	–	10 to 100
Cc1cccc2c1n(-c1ccc(-c3cncc4c3cnn4C)cc1)c(=O)n2CC(=O)N1CCO[C@H](C(F)(F)F)C1 [Example 42, 4-methyl-3-[4-(1-methylpyrazolo[3,4-c]pyridin-4-yl)phenyl]-1-[2-oxo-2-[(2S)-2-(trifluoromethyl)morpholin-4-yl]ethyl]benzimidazol-2-one]	A (pIC50>8)	–	10 to 100	–

Other lines, results leading:

DDR1 pIC50 [1]	DDR2 pIC50 [2]	IC50 [2] [nM]	IC50 [1] [nM]	Compound
A (pIC50>8)	D (pIC50≤6)	–	–	Cn1ncc2c(-c3ccc(-n4c(=O)n(CC(=O)N5CCCC(C(F)(F)F)C5)c5ccccc54)cc3)cncc21 (centres unmarked) [Example 23, 1-[4-(1-methylpyrazolo[3,4-c]pyridin-4-yl)phenyl]-3-[2-oxo-2-[3-(trifluoromethyl)-1-piperidyl]ethyl]benzimidazol-2-one]
A (pIC50>8)	D (pIC50≤6)	–	–	Cn1ncc2c(-c3ccc(-n4c(=O)n(CC(=O)N5CCOC(C(F)(F)F)C5)c5ccccc54)cc3)cncc21 (centres unmarked) [Example 24, 1-[4-(1-methylpyrazolo[3,4-c]pyridin-4-yl)phenyl]-3-[2-oxo-2-[2-(trifluoromethyl)morpholin-4-yl]ethyl]benzimidazol-2-one]
A (pIC50>8)	–	10 to 100	–	Cn1ncc2c(-c3ccc(-n4c(=O)n(CC(=O)N5CCC[C@H]5C(F)F)c5ccccc54)cc3)cncc21 [Example 25, 1-[2-[(2S)-2-(difluoromethyl)pyrrolidin-1-yl]-2-oxo-ethyl]-3-[4-(1-methylpyrazolo[3,4-c]pyridin-4-yl)phenyl]benzimidazol-2-one]
–	D (pIC50≤6)	–	10 to 100	C[C@@H]1CCCN1C(=O)Cn1c(=O)n(-c2ccc(-c3cncc4c3cnn4C)cc2)c2ccccc21 [Example 27, 1-[4-(1-methylpyrazolo[3,4-c]pyridin-4-yl)phenyl]-3-[2-[(2R)-2-methylpyrrolidin-1-yl]-2-oxoethyl]benzimidazol-2-one]
A (pIC50>8)	D (pIC50≤6)	–	–	CC(CC(F)(F)F)NC(=O)Cn1c(=O)n(-c2ccc(-c3cncc4c3cnn4C)cc2)c2ccccc21 (centres unmarked) [Example 28, 2-[3-[4-(1-methylpyrazolo[3,4-c]pyridin-4-yl)phenyl]-2-oxo-benzimidazol-1-yl]-N-(3,3,3-trifluoro-1-methyl-propyl)acetamide]
A (pIC50>8)	D (pIC50≤6)	–	–	Cn1ncc2c(-c3ccc(-n4c(=O)n(CC(=O)N5CCC[C@@H](C(F)(F)F)C5)c5ccccc54)cc3)cncc21 [Example 29, 1-[4-(1-methylpyrazolo[3,4-c]pyridin-4-yl)phenyl]-3-[2-oxo-2-[(3R)-3-(trifluoromethyl)-1-piperidyl]ethyl]benzimidazol-2-one]
A (pIC50>8)	D (pIC50≤6)	–	–	Cn1ncc2c(-c3ccc(-n4c(=O)n(CC(=O)N5CCC[C@H](C(F)(F)F)C5)c5ccccc54)cc3)cncc21 [Example 31, 1-[4-(1-methylpyrazolo[3,4-c]pyridin-4-yl)phenyl]-3-[2-oxo-2-[(3S)-3-(trifluoromethyl)-1-piperidyl]ethyl]benzimidazol-2-one]
–	D (pIC50≤6)	–	10 to 100	CC(CNC(=O)Cn1c(=O)n(-c2ccc(-c3cncc4c3cnn4C)cc2)c2ccccc21)C(F)(F)F (centres unmarked) [Example 33, 2-[3-[4-(1-methylpyrazolo[3,4-c]pyridin-4-yl)phenyl]-2-oxobenzimidazol-1-yl]-N-(3,3,3-trifluoro-2-methyl-propyl)acetamide]
D (pIC50≤6)	D (pIC50≤6)	–	–	Cn1ncc2c(-c3ccc(-n4c(=O)n(CC(=O)N5CC(F)(F)C5)c5ccccc54)cc3)cncc21 [Example 35, 1-[2-(3,3-difluoroazetidin-1-yl)-2-oxoethyl]-3-[4-(1-methylpyrazolo[3,4-c]pyridin-4-yl)phenyl]benzimidazol-2-one]
–	D (pIC50≤6)	–	10 to 100	Cn1ncc2c(-c3ccc(-n4c(=O)n(CC(=O)N5CCO[C@H](C(F)(F)F)C5)c5ccccc54)cc3)cncc21 [Example 38, 1-[4-(1-methylpyrazolo[3,4-c]pyridin-4-yl)phenyl]-3-[2-oxo-2-[(2S)-2-(trifluoromethyl)morpholin-4-yl]ethyl]benzimidazol-2-one]
–	–	100 to 1000	10 to 100	O=C(Cn1c(=O)n(-c2ccc(-c3cncc4[nH]ncc34)cc2)c2ccccc21)NCC(F)(F)F [Example 41, 2-[2-oxo-3-[4-(1H-pyrazolo[3,4-c]pyridin-4-yl)phenyl]benzimidazol-1-yl]-N-(2,2,2-trifluoroethyl)acetamide]
